Experiments:
Type in all cases: in vivo
wheat (Tr) = test: Test Example 5: crop plant selectivity by upland field soil treatment (wheat), phytotoxicity; parameters: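 grade of crop injury; 5 = at least 90%; 4 = 70 to 90%; 3 = 50 to 70%; 2 = 30 to 50%; 1 = 10 to 30%; 0 = under 10%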; details: dose 6.3 g ai/10a, 21st day after application
Outline: (§1)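 Pre-emergence soil treatment, sand-filled pots, seeds covered with soil; greenhouse culture; visual scoring of weed control and wheat injury at day 21 post-application.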

soybean (Gl) = test: Test Example 6: crop plant selectivity by upland field soil treatment (soybean), phytotoxicity; parameters: scale not given here; details: dose 6.3 g ai/10a, 21st day after application
Outline: (§2)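 Greenhouse pot test with soil-applied compound after sowing soybean and weeds in sand; effects graded on day 21 after application.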

slender amaranth (Am) [1] = test: Test Example 5: crop plant selectivity by upland field soil treatment (wheat), herbicidal effects; parameters: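 grade of growth control; 5 = at least 90%; 4 = 70 to 90%; 3 = 50 to 70%; 2 = 30 to 50%; 1 = 10 to 30%; 0 = under 10%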; details: dose 6.3 g ai/10a, 21st day after application
Outline: as §1

green foxtail (Se) [2] = test: as above; parameters: scale not given here; details: dose 6.3 g ai/10a, 21st day after application
Outline: as §1

pale smartweed (Po) [3] = test: as above; parameters: scale not given here; details: dose 6.3 g ai/10a, 21st day after application
Outline: as §1

[4] = test system: common lambsquarters (Ch); test: as above; parameters: scale not given here; details: dose 6.3 g ai/10a, 21st day after application
Outline: as §1

China jute (Ab) [5] = test: as above; parameters: scale not given here; details: dose 6.3 g ai/10a, 21st day after application
Outline: as §1

slender amaranth (Am) [6] = test: Test Example 6: crop plant selectivity by upland field soil treatment (soybean), herbicidal effects; parameters: scale not given here; details: dose 6.3 g ai/10a, 21st day after application
Outline: as §2

green foxtail (Se) [7] = test: as above; parameters: scale not given here; details: dose 6.3 g ai/10a, 21st day after application
Outline: as §2

pale smartweed (Po) [8] = test: as above; parameters: scale not given here; details: dose 6.3 g ai/10a, 21st day after application
Outline: as §2

[9] = test system: common lambsquarters (Ch); test: as above; parameters: scale not given here; details: dose 6.3 g ai/10a, 21st day after application
Outline: as §2

China jute (Ab) [10] = test: as above; parameters: scale not given here; details: dose 6.3 g ai/10a, 21st day after application
Outline: as §2

slender amaranth (Am) [11] = test: Test Example 4: crop plant selectivity by upland field soil treatment (cotton), herbicidal effects; parameters: scale not given here; details: dose 6.3 g ai/10 a, evaluated 21st day after application
Outline: (§3)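 Seeds of cotton and several weed species were sown in sand-filled pots and covered with soil before soil treatment with the test compound. Plants were grown in a greenhouse, and herbicidal effect and crop phytotoxicity were scored against set standards 21 days after application.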

green foxtail (Se) [12] = test: as above; parameters: scale not given here; details: dose 6.3 g ai/10 a, evaluated 21st day after application
Outline: as §3

pale smartweed (Po) [13] = test: as above; parameters: scale not given here; details: dose 6.3 g ai/10 a, evaluated 21st day after application
Outline: as §3

[14] = test system: common lambsquarters (Ch); test: as above; parameters: scale not given here; details: dose 6.3 g ai/10 a, evaluated 21st day after application
Outline: as §3

China jute (Ab) [15] = test: as above; parameters: scale not given here; details: dose 6.3 g ai/10 a, evaluated 21st day after application
Outline: as §3

cotton (Go) = test: Test Example 4: crop plant selectivity by upland field soil treatment (cotton), phytotoxicity; parameters: scale not given here; details: dose 6.3 g ai/10 a, evaluated 21st day after application
Outline: as §3

corn (Ze) = test: Test Example 7: crop plant selectivity by upland field soil treatment (corn), phytotoxicity; parameters: scale not given here; details: dose 6.3 g ai/10a, 21st day after application
Protocol: (§4) (Test on Crop Plant Selectivity by Upland Field Soil Treatment)
(§5) In a plastic pot (surface area: 600 cm^2) filled with sand, corn (Ze), green foxtail (Se), pale smartweed (Po), slender amaranth (Am), common lambsquarters (Ch) and China jute (Ab) were sown and covered with soil. […] The plants were then cultured in a green house, and the evaluation of the herbicidal effects and phytotoxicity was conducted on the 21st day after the application in accordance with the standards as identified in Table 47.

slender amaranth (Am) [16] = test: Test Example 7: crop plant selectivity by upland field soil treatment (corn), herbicidal effects; parameters: scale not given here; details: dose 6.3 g ai/10a, 21st day after application
Protocol: as §4, §5

green foxtail (Se) [17] = test: as above; parameters: scale not given here; details: dose 6.3 g ai/10a, 21st day after application
Protocol: as §4, §5

pale smartweed (Po) [18] = test: as above; parameters: scale not given here; details: dose 6.3 g ai/10a, 21st day after application
Protocol: as §4, §5

[19] = test system: common lambsquarters (Ch); test: as above; parameters: scale not given here; details: dose 6.3 g ai/10a, 21st day after application
Protocol: as §4, §5

China jute (Ab) [20] = test: as above; parameters: scale not given here; details: dose 6.3 g ai/10a, 21st day after application
Protocol: as §4, §5

slender amaranth (Am) [21] = test: Test Example 3: herbicidal effects by upland field foliage treatment; parameters: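 grade of growth control; 5 = at least 90%; 4 = 70 to 90%; 3 = 50 to 70%; 2 = 30 to 50%; 1 = 10 to 30%; 0 = under 10%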
Outline: (§6)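 Foliage-applied treatment on weeds pre-grown for 2 weeks in a greenhouse. Pots held sand (surface area 120 cm^2); seeds were sown and covered with soil. Evaluation: graded herbicidal effect 14 days post-application.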

pale smartweed (Po) [22] = test: as above; parameters: scale not given here
Outline: as §6

barnyardgrass (Ec) [23] = test: as above; parameters: scale not given here
Outline: as §6

[24] = test system: common lambsquarters (Ch); test: as above; parameters: scale not given here
Outline: as §6

rice flatsedge (Ci) [25] = test: as above; parameters: scale not given here
Outline: as §6

Diaitaria ciliaris (Di) = test: as above; parameters: scale not given here
Outline: as §6

monochoria (Mo) = test: Test Example 1: herbicidal effects by paddy field soil treatment; details: 100 g of the active ingredient per 10 ares, 21st day after the application, index 0-5 of Table 47;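 also: grade of growth control; 5 = at least 90%; 4 = 70 to 90%; 3 = 50 to 70%; 2 = 30 to 50%; 1 = 10 to 30%; 0 = under 10%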
Outline: (§7)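 Greenhouse pot test in flooded paddy soil, dosed at 100 g a.i. per 10 ares; effect scored on day 21.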

barnyardgrass (Ec) [26] = test: as above; details: 100 g of the active ingredient per 10 ares, 21st day after the application, index 0-5 of Table 47
Outline: as §7

bulrush (Sc) = test: as above; details: 100 g of the active ingredient per 10 ares, 21st day after the application, index 0-5 of Table 47;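 also: grade of growth control; 5 = at least 90%; 4 = 70 to 90%; 3 = 50 to 70%; 2 = 30 to 50%; 1 = 10 to 30%; 0 = under 10%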
Outline: as §7

slender amaranth (Am) [27] = test: Test Example 2: herbicidal effects by upland field soil treatment; details: 100 g of the active ingredient per 10 ares;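 also: grade of growth control; 5 = at least 90%; 4 = 70 to 90%; 3 = 50 to 70%; 2 = 30 to 50%; 1 = 10 to 30%; 0 = under 10%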
Description: (§8) (Test on Herbicidal Effects by Upland Field Soil Treatment)

pale smartweed (Po) [28] = test: as above; details: 100 g of the active ingredient per 10 ares
Description: as §8

barnyardgrass (Ec) [29] = test: as above; details: 100 g of the active ingredient per 10 ares
Description: as §8

[30] = test system: common lambsquarters (Ch); test: as above; details: 100 g of the active ingredient per 10 ares
Description: as §8

rice flatsedge (Ci) [31] = test: as above; details: 100 g of the active ingredient per 10 ares
Description: as §8

Digitaria ciliaris (Di) = test: as above; details: 100 g of the active ingredient per 10 ares;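 also: grade of growth control; 5 = at least 90%; 4 = 70 to 90%; 3 = 50 to 70%; 2 = 30 to 50%; 1 = 10 to 30%; 0 = under 10%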
Description: as §8

[32] = 100 g of the active ingredient per 10 ares, evaluated on the 14th day after treatment
[33] = 21st day after the application, index 0-5 of Table 47
[34] = 100 g active ingredient per 10 ares, evaluated 14th day after treatment
[35] = evaluated on the 21st day after application

SMILES | Phytotoxicity Tr (wheat (Tr)) | Phytotoxicity Gl (soybean (Gl)) | Herbicidal effects Am (slender amaranth (Am) [1]) | Herbicidal effects Se (green foxtail (Se) [2]) | Herbicidal effects Po (pale smartweed (Po) [3]) | Herbicidal effects Ch [4] | Herbicidal effects Ab (China jute (Ab) [5]) | Herbicidal effects Am (slender amaranth (Am) [6]) | Herbicidal effects Se (green foxtail (Se) [7]) | Herbicidal effects Po (pale smartweed (Po) [8]) | Herbicidal effects Ch [9] | Herbicidal effects Ab (China jute (Ab) [10]) | Herbicidal effects Am (slender amaranth (Am) [11]) | Herbicidal effects Se (green foxtail (Se) [12]) | Herbicidal effects Po (pale smartweed (Po) [13]) | Herbicidal effects Ch [14] | Herbicidal effects Ab (China jute (Ab) [15]) | Phytotoxicity Go (cotton (Go)) | Phytotoxicity Ze (corn (Ze)) | Herbicidal effects Am (slender amaranth (Am) [16]) | other results
Cn1c(C(F)(F)F)ccc(-c2cc(Br)c(Cl)cc2F)c1=O [1-138] | 1 | 2 | 5 | 5 | 5 | 5 | 4 | 5 | 5 | 5 | 5 | 4 | 5 | 5 | 5 | 5 | 4 | 1 | 2 | 5 | Herbicidal effects Se (green foxtail (Se) [17]): 5; Herbicidal effects Po (pale smartweed (Po) [18]): 5; Herbicidal effects Ch [19]: 5; Herbicidal effects Ab (China jute (Ab) [20]): 4; Herbicidal effects Am (slender amaranth (Am) [21]; [32]): 5; Herbicidal effects Po (pale smartweed (Po) [22]; [32]): 5; Herbicidal effects Ec (barnyardgrass (Ec) [23]; [32]): 5; Herbicidal effects Ch [24, 32]: 5; Herbicidal effects Ci (rice flatsedge (Ci) [25]; [32]): 5; Herbicidal effects Di (Diaitaria ciliaris (Di); [32]): 5; Herbicidal effects Mo (monochoria (Mo)): 5; Herbicidal effects Ec (barnyardgrass (Ec) [26]): 5; Herbicidal effects Sc (bulrush (Sc)): 5; Herbicidal effects Am (slender amaranth (Am) [27]; [33]): 5; Herbicidal effects Po (pale smartweed (Po) [28]; [33]): 5; Herbicidal effects Ec (barnyardgrass (Ec) [29]; [33]): 5; Herbicidal effects Ch [30, 33]: 5; Herbicidal effects Ci (rice flatsedge (Ci) [31]; [33]): 5; Herbicidal effects Di (Digitaria ciliaris (Di); [33]): 5
CCC(C)Oc1cc(-c2ccc(C(F)(F)F)n(C)c2=O)c(F)cc1Cl (stereo not drawn) [1-167] | 1 | 1 | 5 | 5 | 5 | 5 | 5 | 5 | 5 | 5 | 5 | 5 | 5 | 5 | 5 | 5 | 5 | 1 | 0 | 5 | Herbicidal effects Se (green foxtail (Se) [17]): 5; Herbicidal effects Po (pale smartweed (Po) [18]): 5; Herbicidal effects Ch [19]: 5; Herbicidal effects Ab (China jute (Ab) [20]): 5; Herbicidal effects Am (slender amaranth (Am) [21]; [32]): 5; Herbicidal effects Po (pale smartweed (Po) [22]; [32]): 5; Herbicidal effects Ec (barnyardgrass (Ec) [23]; [32]): 5; Herbicidal effects Ch [24, 32]: 5; Herbicidal effects Ci (rice flatsedge (Ci) [25]; [32]): 5; Herbicidal effects Di (Diaitaria ciliaris (Di); [32]): 5; Herbicidal effects Mo (monochoria (Mo)): 5; Herbicidal effects Ec (barnyardgrass (Ec) [26]): 5; Herbicidal effects Sc (bulrush (Sc)): 5; Herbicidal effects Am (slender amaranth (Am) [27]; [33]): 5; Herbicidal effects Po (pale smartweed (Po) [28]; [33]): 5; Herbicidal effects Ec (barnyardgrass (Ec) [29]; [33]): 5; Herbicidal effects Ch [30, 33]: 5; Herbicidal effects Ci (rice flatsedge (Ci) [31]; [33]): 5; Herbicidal effects Di (Digitaria ciliaris (Di); [33]): 5
C#CCOc1cc(Cl)cc(F)c1-c1ccc(C(F)(F)F)n(C)c1=O [1′-4] | 1 | 1 | 5 | 5 | 5 | 5 | 5 | 5 | 5 | 5 | 5 | 5 | 5 | 5 | 5 | 5 | 5 | 0 | 1 | 5 | Herbicidal effects Se (green foxtail (Se) [17]): 5; Herbicidal effects Po (pale smartweed (Po) [18]): 5; Herbicidal effects Ch [19]: 5; Herbicidal effects Ab (China jute (Ab) [20]): 5; Herbicidal effects Am (slender amaranth (Am) [21]; [34]): 5; Herbicidal effects Po (pale smartweed (Po) [22]; [34]): 5; Herbicidal effects Ec (barnyardgrass (Ec) [23]; [34]): 5; Herbicidal effects Ch [24, 34]: 5; Herbicidal effects Ci (rice flatsedge (Ci) [25]; [34]): 5; Herbicidal effects Di (Diaitaria ciliaris (Di); [34]): 5; Herbicidal effects Mo (monochoria (Mo)): 5; Herbicidal effects Ec (barnyardgrass (Ec) [26]): 5; Herbicidal effects Sc (bulrush (Sc)): 5; Herbicidal effects Am (slender amaranth (Am) [27]; [35]): 5; Herbicidal effects Po (pale smartweed (Po) [28]; [35]): 5; Herbicidal effects Ec (barnyardgrass (Ec) [29]; [35]): 5; Herbicidal effects Ch [30, 35]: 5; Herbicidal effects Ci (rice flatsedge (Ci) [31]; [35]): 5; Herbicidal effects Di (Digitaria ciliaris (Di); [35]): 5

— patent publication US6472348B1, “Pyridone derivatives and herbicides” (Kumiai Chemical Industry Co., Ltd., priority 1996, dated 2002)
